Test [1] has as its target human recombinant BACE2 (Homo sapiens (Human), UniProt Q9Y5Z0). Kind of test: In vitro enzymatic BACE2 FRET assay. In kind it is biochemical. Conditions: read-out: IC50 IP (μM) BACE2 enzyme. The essentials:
(§1)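 FRET cleavage assay using Ni-NTA-purified recombinant protease and 50 nM quenched peptide substrate, 1 h. Stopped by neutralising with Tris; fluorescence at 488/590 nm.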

For test [2], the target named is human recombinant BACE1 (Homo sapiens (Human), UniProt P56817). Kind of test: In vitro enzymatic BACE1 FRET assay. In kind it is biochemical. The note with it: read-out: IC50 IP (μM) BACE1 enzyme. In outline: as §1
human recombinant BACE1, sequence (P56817 46-501): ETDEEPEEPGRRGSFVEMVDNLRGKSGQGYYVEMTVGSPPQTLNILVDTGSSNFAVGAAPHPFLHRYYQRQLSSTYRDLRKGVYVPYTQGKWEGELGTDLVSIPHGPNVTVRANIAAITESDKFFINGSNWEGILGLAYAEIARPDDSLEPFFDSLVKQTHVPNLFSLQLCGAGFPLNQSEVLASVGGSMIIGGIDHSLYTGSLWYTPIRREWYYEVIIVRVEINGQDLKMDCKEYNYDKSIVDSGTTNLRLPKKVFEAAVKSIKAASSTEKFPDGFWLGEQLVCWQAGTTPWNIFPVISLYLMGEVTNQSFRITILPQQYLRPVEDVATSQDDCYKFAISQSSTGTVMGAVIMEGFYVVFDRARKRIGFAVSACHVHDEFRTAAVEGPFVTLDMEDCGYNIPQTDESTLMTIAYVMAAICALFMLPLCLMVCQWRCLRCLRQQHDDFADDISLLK
The target of test [3] is Recombinant Cat D (Homo sapiens (Human), UniProt P07339). Kind of test: In vitro enzymatic Cathepsin D (Cat D) FRET assay. In kind it is biochemical. The note with it: read-out: IC50 IP (μM) CatD. In outline:
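Assay pH is 3.5 (0.05 M citrate, 5 mM CHAPS, 10% DMSO final) with Cat D from CHO cells. A 20 nM quenched peptide substrate is cleaved over one hour; the reaction is ended with Tris and read by fluorescence (ex 500, em 580 nm).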

Test [4] deals with Aβ40 in conditioned medium of cells stably expressing Amyloid Precursor Protein (APP). Put plainly: In vitro BACE-1 cell-based assay (Aβ40 sandwich ELISA). The note with it: read-out: IC50 IP (μM) BACE1 cell. In outline:
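APP-stable cells, pre-cultured 24 h at 37° C in DMEM/10% FBS, were treated 24 h with compound in a 10-point series starting at 100 μM or 10 μM (0.1% DMSO final). Secreted Aβ40 in conditioned medium was measured by pAb40/biotin-6E10 sandwich ELISA with Europium time-resolved fluorescence; IC50 from percent inhibition versus concentration.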
(In general: An ELISA detects its analyte on a solid surface through an enzyme-linked reagent.)

Each structure is given as a SMILES string. Like-named read-outs stand apart in the source and are kept apart here. Where only a bound is given, the exact number is not on record here.

For 17 molecules, IC50 results are on record in patent publication US20160046618A1, “Cyclopropyl Fused Thiazin-2-Amine Compounds as Beta-Secretase Inhibitors and Methods of Use” (AMGEN INC., priority 2014, published 2016).

human recombinant BACE2, sequence (Q9Y5Z0 63-518): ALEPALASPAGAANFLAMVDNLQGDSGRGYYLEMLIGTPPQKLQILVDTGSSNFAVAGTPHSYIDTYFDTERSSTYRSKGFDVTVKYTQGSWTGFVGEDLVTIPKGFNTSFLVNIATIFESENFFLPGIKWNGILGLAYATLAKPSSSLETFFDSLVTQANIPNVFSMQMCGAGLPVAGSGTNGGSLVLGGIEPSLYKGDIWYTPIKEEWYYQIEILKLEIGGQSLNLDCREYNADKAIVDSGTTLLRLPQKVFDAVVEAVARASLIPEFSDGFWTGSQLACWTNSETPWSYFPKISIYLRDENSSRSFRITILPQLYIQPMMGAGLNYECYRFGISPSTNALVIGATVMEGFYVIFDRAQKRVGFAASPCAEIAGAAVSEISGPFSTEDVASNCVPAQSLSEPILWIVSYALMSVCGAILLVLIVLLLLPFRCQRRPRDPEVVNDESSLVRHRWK
Recombinant Cat D, sequence (P07339 65-412): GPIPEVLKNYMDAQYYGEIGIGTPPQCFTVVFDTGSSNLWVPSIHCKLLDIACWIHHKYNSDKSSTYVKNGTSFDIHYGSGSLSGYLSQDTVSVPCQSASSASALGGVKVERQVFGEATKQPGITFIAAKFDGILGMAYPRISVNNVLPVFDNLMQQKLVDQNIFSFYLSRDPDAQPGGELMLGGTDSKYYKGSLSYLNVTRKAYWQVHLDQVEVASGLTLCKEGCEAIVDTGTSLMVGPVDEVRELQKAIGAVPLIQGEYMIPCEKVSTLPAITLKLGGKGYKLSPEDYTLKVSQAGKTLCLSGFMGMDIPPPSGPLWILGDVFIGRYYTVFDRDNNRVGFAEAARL

The IC50 is the concentration that gives 50% inhibition. In the case of `COC[C@@]12C[C@@H]1[C@@](CF)(c1cc(NC(=O)c3ccc(Cl)cn3)cc(F)c1F)N=C(N)S2` [Example 96, N-(3-((1R,5S,6R)-3-amino-5-(fluoromethyl)-1-(methoxymethyl)-2-thia-4-azabicyclo[4.1.0]hept-3-en-5-yl)-4,5-difluorophenyl)-5-chloro-2-pyridinecarboxamide], the IC50 came out at 0.0024 µM in test [1] (BACE2 FRET enzyme assay), 0.00726 µM in test [2] (BACE1 FRET enzyme assay), 40.4 µM in test [3] (Cathepsin D FRET enzyme assay) and 0.0174 µM in test [4] (BACE1 cell-based assay).
As for `N#Cc1cnc2c(Nc3ccc(F)c([C@@]4(CF)N=C(N)S[C@@]5(CF)C[C@H]54)c3)ncnc2c1` [Example 97, 4-((3-((1S,5S,6S)-3-amino-1,5-bis(fluoromethyl)-2-thia-4-azabicyclo[4.1.0]hept-3-en-5-yl)-4-fluorophenyl)amino)pyrido[3,2-d]pyrimidine-7-carbonitrile], the 50% inhibitory concentration (IC50) turned out to be 0.0632 µM in test [1] (BACE2 FRET enzyme assay), 0.0118 µM in test [2] (BACE1 FRET enzyme assay), 752 µM in test [3] (Cathepsin D FRET enzyme assay) and 0.0312 µM in test [4] (BACE1 cell-based assay).
The like results for `C[C@]1(c2cc(NC(=O)c3ccc(Cl)cn3)cnc2F)N=C(N)S[C@@]2(CF)C[C@H]21` [Example 98, N-(5-((1S,5S,6S)-3-amino-1-(fluoromethyl)-5-methyl-2-thia-4-azabicyclo[4.1.0]hept-3-en-5-yl)-6-fluoropyridin-3-yl)-5-chloropicolinamide] were, in that order, 0.0032 µM, 0.00665 µM, 3140 µM and 0.0056 µM.
`COC(=O)[C@]12C[C@H]1[C@@](C)(c1cc(NC(=O)c3ccc(Cl)cn3)cnc1F)N=C(N)S2` [Example 99, (1S,5S,6S)-methyl 3-amino-5-(5-(5-chloropicolinamido)-2-fluoropyridin-3-yl)-5-methyl-2-thia-4-azabicyclo[4.1.0]hept-3-ene-1-carboxylate]: the IC50 in test [1] (BACE2 FRET enzyme assay) is 0.00824 µM; in test [2] (BACE1 FRET enzyme assay), 0.00659 µM; in test [3] (Cathepsin D FRET enzyme assay), 1130 µM; in test [4] (BACE1 cell-based assay), 0.0659 µM.
Consider `C[C@]1(c2cc(NC(=O)c3ccc(Cl)cn3)cnc2F)N=C(N)S[C@@]2(CO)C[C@H]21` [Example 100, N-(5-((1S,5S,6S)-3-amino-1-(hydroxymethyl)-5-methyl-2-thia-4-azabicyclo[4.1.0]hept-3-en-5-yl)-6-fluoropyridin-3-yl)-5-chloropicolinamide], for which the IC50 is 0.0038 µM in test [1] (BACE2 FRET enzyme assay), 0.0225 µM in test [2] (BACE1 FRET enzyme assay), more than 400 µM in test [3] (Cathepsin D FRET enzyme assay) and 0.0112 µM in test [4] (BACE1 cell-based assay).
The like results for `C[C@]1(c2cc(Nc3ncnc4cc(C#N)cnc34)ccc2F)N=C(N)S[C@@H]2[C@H]1C2(F)F` [Example 101, 4-((3-((1R,5S,6R)-3-amino-7,7-difluoro-5-methyl-2-thia-4-azabicyclo[4.1.0]hept-3-en-5-yl)-4-fluorophenyl)amino)pyrido[3,2-d]pyrimidine-7-carbonitrile] were, in that order, 0.023 µM, 0.0197 µM, 720 µM and 0.094 µM.
The like results for `C#CCOc1cnc(C(=O)Nc2ccc(F)c([C@@]3(C)N=C(N)S[C@@H]4[C@H]3C4(F)F)c2)c(C)n1` [Example 102, N-(3-((1R,5S,6R)-3-amino-7,7-difluoro-5-methyl-2-thia-4-azabicyclo[4.1.0]hept-3-en-5-yl)-4-fluorophenyl)-3-methyl-5-(prop-2-yn-1-yloxy)pyrazine-2-carboxamide] were, in that order, 0.019 µM, 0.00433 µM, 361 µM and 0.058 µM.
For `C#CCOc1cnc2c(Nc3cnc(F)c([C@@]4(C)N=C(N)S[C@@]5(CF)C[C@H]54)c3)nccc2n1` [Example 601, N-(5-((1S,5S,6S)-3-amino-1-(fluoromethyl)-5-methyl-2-thia-4-azabicyclo[4.1.0]hept-3-en-5-yl)-6-fluoro-3-pyridinyl)-2-(2-propyn-1-yloxy)pyrido[3,4-b]pyrazin-5-amine], the IC50 was 0.0361 µM in test [1], 0.000589 µM in test [2], 1680 µM in test [3] and 0.00235 µM in test [4].
The like results for `C[C@]1(c2cc(Nc3nccc4nc(OCc5ncco5)cnc34)cnc2F)N=C(N)S[C@@]2(CF)C[C@H]21` [Example 602, N-(5-((1S,5S,6S)-3-amino-1-(fluoromethyl)-5-methyl-2-thia-4-azabicyclo[4.1.0]hept-3-en-5-yl)-6-fluoro-3-pyridinyl)-2-(1,3-oxazol-2-ylmethoxy)pyrido[3,4-b]pyrazin-5-amine] were, in that order, 0.0371 µM, 0.000871 µM, 605 µM and 0.00204 µM.
The like results for `C#CCOc1cnc(C(=O)Nc2cnc(F)c([C@@]3(C)N=C(N)S[C@@]4(CF)C[C@H]43)c2)c(C)n1` [Example 603, N-(5-((1S,5S,6S)-3-amino-1-(fluoromethyl)-5-methyl-2-thia-4-azabicyclo[4.1.0]hept-3-en-5-yl)-6-fluoro-3-pyridinyl)-3-methyl-5-(2-propyn-1-yloxy)-2-pyrazinecarboxamide] were, in that order, 0.0132 µM, 0.0016 µM, 336 µM and 0.0037 µM.
The like results for `C[C@]1(c2cc(Nc3nccc4cc(C#N)cnc34)cnc2F)N=C(N)S[C@@]2(CF)C[C@H]21` [Example 604, 8-((5-((1S,5S,6S)-3-amino-1-(fluoromethyl)-5-methyl-2-thia-4-azabicyclo[4.1.0]hept-3-en-5-yl)-6-fluoro-3-pyridinyl)amino)-1,7-naphthyridine-3-carbonitrile] were, in that order, 0.00378 µM, 0.00624 µM, 571 µM and 0.00933 µM.
For the molecule `C[C@]1(c2cc(Nc3ncnc4cc(OCc5ncco5)cnc34)cnc2F)N=C(N)S[C@@]2(CF)C[C@H]21` [Example 605, N-(5-((1S,5S,6S)-3-amino-1-(fluoromethyl)-5-methyl-2-thia-4-azabicyclo[4.1.0]hept-3-en-5-yl)-6-fluoro-3-pyridinyl)-7-(1,3-oxazol-2-ylmethoxy)pyrido[3,2-d]pyrimidin-4-amine], the IC50 came to 0.114 µM in test [1], 0.00178 µM in test [2], 1290 µM in test [3] and 0.00149 µM in test [4].
As for `C#CCOc1cnc(C(=O)Nc2cnc(F)c([C@@]3(C)N=C(N)S[C@@]4(CF)C[C@H]43)c2)cn1` [Example 606, N-(5-((1S,5S,6S)-3-amino-1-(fluoromethyl)-5-methyl-2-thia-4-azabicyclo[4.1.0]hept-3-en-5-yl)-6-fluoropyridin-3-yl)-5-(prop-2-yn-1-yloxy)pyrazine-2-carboxamide], the IC50 in test [1] stood at 0.00931 µM; in test [2], 0.00032 µM; in test [3], 278 µM; in test [4], 0.000849 µM.
As for `C[C@]1(c2cc(NC(=O)c3cnc(OCc4ncco4)cn3)cnc2F)N=C(N)S[C@@]2(CF)C[C@H]21` [Example 607, N-(5-((1S,5S,6S)-3-amino-1-(fluoromethyl)-5-methyl-2-thia-4-azabicyclo[4.1.0]hept-3-en-5-yl)-6-fluoro-3-pyridinyl)-5-(1,3-oxazol-2-ylmethoxy)-2-pyrazinecarboxamide], the IC50 is 0.0237 µM in test [1], 0.000975 µM in test [2], more than 400 µM in test [3] and 0.000956 µM in test [4].
The like results for `C[C@]1(c2cc(Nc3ncnc4cc(OCc5ncco5)cnc34)cnc2F)N=C(N)S[C@@]2(CC#N)C[C@H]21` [Example 608, ((1R,5S,6S)-3-amino-5-(2-fluoro-5-((7-(1,3-oxazol-2-ylmethoxy)pyrido[3,2-d]pyrimidin-4-yl)amino)-3-pyridinyl)-5-methyl-2-thia-4-azabicyclo[4.1.0]hept-3-en-1-yl)acetonitrile] were, in that order, 0.154 µM, 0.00285 µM, more than 400 µM and 0.00174 µM.
The like results for `C[C@]1(c2cc(NC(=O)c3ccc(OCC(F)(F)C(F)F)cn3)cnc2F)N=C(N)S[C@@]2(CF)C[C@H]21` [Example 609, N-(5-((1S,5S,6S)-3-amino-1-(fluoromethyl)-5-methyl-2-thia-4-azabicyclo[4.1.0]hept-3-en-5-yl)-6-fluoro-3-pyridinyl)-5-(2,2,3,3-tetrafluoropropoxy)-2-pyridinecarboxamide] were, in that order, 0.466 µM, 0.00344 µM, more than 400 µM and 0.0194 µM.
The like results for `C[C@]1(c2cc(NC(=O)c3cnc(OCC(F)(F)C(F)F)cn3)cnc2F)N=C(N)S[C@@]2(CF)C[C@H]21` [Example 610, N-(5-((1S,5S,6S)-3-amino-1-(fluoromethyl)-5-methyl-2-thia-4-azabicyclo[4.1.0]hept-3-en-5-yl)-6-fluoro-3-pyridinyl)-5-(2,2,3,3-tetrafluoropropoxy)-2-pyrazinecarboxamide] were, in that order, 0.193 µM, 0.00178 µM, more than 400 µM and 0.00597 µM.
